# From BindingDB's records for doi:10.1016/S1074-5521(03)00159-5 (Merck Research Laboratories, 2003)
# Target: Mitogen-activated protein kinase 14 (Homo sapiens, UniProt Q16539)
# Test: Homogeneous Time-Resolved Fluorescence (HTRF) Enzyme Assay
# Conditions: pH 7; 22 °C
# Protocol: The HTRF signal is calculated as a ratio of the A-counts to B-counts. The signal produced is proportional to the amount of JNK3 or p38 kinase activity present during the kinase reaction phase.
# Sequence of Mitogen-activated protein kinase 14 (Q16539 whole entry): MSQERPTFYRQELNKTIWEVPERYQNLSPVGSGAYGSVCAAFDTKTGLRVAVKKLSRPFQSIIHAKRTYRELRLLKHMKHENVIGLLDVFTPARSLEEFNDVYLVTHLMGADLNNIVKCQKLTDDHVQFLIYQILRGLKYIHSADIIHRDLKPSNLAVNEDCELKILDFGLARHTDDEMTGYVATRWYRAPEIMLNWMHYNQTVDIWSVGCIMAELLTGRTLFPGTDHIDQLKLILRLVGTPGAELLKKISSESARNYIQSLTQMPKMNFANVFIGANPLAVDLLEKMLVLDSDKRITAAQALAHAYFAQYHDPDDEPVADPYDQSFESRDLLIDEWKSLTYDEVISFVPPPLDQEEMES
row,IC50,SMILES
1,0.078 nM,CCCn1c(C2CCN(C)CC2)nc(-c2ccc(Cl)c(Cl)c2)c1-c1ccnc(NC2CC2)n1
2,4 nM,CCCn1c(C2CCNCC2)nc(-c2ccc(Cl)c(Cl)c2)c1-c1ccnc(NC2CCCCC2)n1
3,> 40000 nM,"Oc1ccc(-c2cnc3ccc4ccncc4c3c2)cc1 [4-(2,7-phenanthrolin-9-yl)phenol]"
